Results published in patent US10221171B2, “Oxathiazole thiazolium Hsp 70 inhibitors” (THE REGENTS OF THE UNIVERSITY OF CALIFORNIA, priority 2015, dated 2019).
Where two headings read alike, the source gives them in different places.

Key:
Format in all cases: cell-based
[1] = tested on: MDA-MB-231; experiment: MTT cell viability assay, MDA-MB-231; details: Homo sapiens
Method: (§1) Cells were then treated with compound at various concentrations in 0.2 mL media. After the 72-hour incubation period, cells were washed in PBS (3×100 μL), and 10 μL MTT reagent was added with 100 μL fresh media. Cells were then incubated for 4 hr in a humidified chamber at 37° C. with 5% CO2. Insoluble formazan crystals were solubilized by addition of 0.1 mL detergent solution (4 hr at room temp., dark). Resulting colored solutions were then quantified at an absorbance of 570 nm.

[2] = tested on: MEF (C57BL/6); experiment: MTT cell viability assay, MEF (C57BL/6); details: Mus musculus
Method: as §1

[3] = tested on: MCF-7; experiment: MTT cell viability assay, MCF-7; details: Homo sapiens, read-out: IC50/μM MCF-7
Method: as §1

[4] = MTT, 72-hour incubation, read-out: IC50/μM MEF (C57BL/6)
[5] = MDA-MB-231, 72 h, 72-hour incubation
[6] = 72 h, read-out: IC50/μM MEF (C57BL/6), MTT, 72-hour incubation

Row | IC50 ([1]; MDA-MB-231, 72-hour incubation) [µM] | IC50 ([3]; MCF7, MTT, 72-hour incubation) [µM] | SMILES | IC50 [2, 4] [µM] | IC50 [1, 5] [µM] | IC50 [2, 6] [µM] | IC50 ([3]; MCF7, 72 h, MTT, 72-hour incubation) [µM] | IC50 ([3]; MCF7, 72 h) [µM]
1 | 0.19 ± 0.02 | 0.35 ± 0.04 | CCn1c(=O)/c(=C2\Sc3cc(Cl)ccc3N2C)s/c1=C\c1scc[n+]1Cc1c(C)cccc1C [JG-333] | 1.1 ± 0.1 |  |  |  | 
2 | 0.25 ± 0.04 | 0.57 ± 0.08 | CCn1c(=O)/c(=C2\Sc3cc(SC)ccc3N2C)s/c1=C\c1scc[n+]1Cc1ccc(C(F)(F)F)o1 [JG-314] | 4.8 ± 0.9 |  |  |  | 
3 | 0.09 ± 0.005 | 0.09 ± 0.006 | CCn1c(=O)/c(=C2\Sc3cc(C)ccc3N2C)s/c1=C\c1scc[n+]1Cc1ccccc1C [JG-284] | 0.64 ± 0.03 |  |  |  | 
4 | > 20 | > 20 | CCn1c(=O)/c(=C2\Sc3cc(Cl)ccc3N2C)s/c1=C\c1scc[n+]1Cc1ccccc1C(=O)O [JG-316] | > 10 |  |  |  | 
5 | 0.11 ± 0.01 | 0.052 ± 0.004 | CCc1ccc2c(c1)S/C(=c1/s/c(=C\c3scc[n+]3Cc3ccccc3C(F)(F)F)n(CC)c1=O)N2C [JG-298] | 0.43 ± 0.02 |  |  |  | 
6 |  |  | CCn1c(=O)/c(=C2\Sc3cc(SC)ccc3N2C)s/c1=C\c1scc[n+]1Cc1ccccc1 [JG-249] |  | 0.12 ± 0.01 | 1.7 ± 0.1 | 0.13 ± 0.01 | 
7 | 0.49 ± 0.05 | 0.39 ± 0.03 | CN1/C(=c2\s/c(=C\c3scc[n+]3Cc3ccccc3)n(C)c2=O)Sc2ccccc21 [JG-277] | 4.1 ± 0.2 |  |  |  | 
8 | 0.23 ± 0.04 | 0.39 ± 0.06 | CCn1c(=O)/c(=C2\Sc3cc(Br)ccc3N2C)s/c1=C\c1scc[n+]1Cc1ccsc1 [JG-278] | 3.4 ± 0.2 |  |  |  | 
9 | 0.23 ± 0.01 | 0.19 ± 0.02 | CCn1c(=O)/c(=C2\Sc3ccc(C)cc3N2C)s/c1=C\c1scc[n+]1Cc1c(C)cccc1C [JG-362] | 2.3 ± 0.1 |  |  |  | 
10 | 0.12 ± 0.01 | 0.063 ± 0.004 | CCn1c(=O)/c(=C2\Sc3ccc(C)cc3N2C)s/c1=C\c1scc[n+]1Cc1ccsc1C(=O)OC [JG-369] | 0.44 ± 0.02 |  |  |  | 
11 | 1.1 ± 0.1 | 2.5 ± 0.5 | CCn1c(=O)/c(=C2\Sc3cc(F)c(F)cc3N2C)s/c1=C\c1scc[n+]1Cc1ccccc1 [JG-251] | 0.91 ± 0.06 |  |  |  | 
12 | > 20 | > 5 | CCn1c(=O)/c(=C2\Sc3cc(F)ccc3N2C)s/c1=C\c1scc[n+]1Cc1csc(NC(C)=O)n1 [JG-262] | > 10 |  |  |  | 
13 | 0.08 ± 0.008 | 0.098 ± 0.008 | CCn1c(=O)/c(=C2\Sc3cc(Cl)ccc3N2C)s/c1=C\c1scc[n+]1Cc1nc(C)sc1C [JG-274] | 4.2 ± 0.4 |  |  |  | 
14 | 0.74 ± 0.08 | 0.78 ± 0.06 | CCn1c(=O)/c(=C2\Sc3cc(Cl)ccc3N2C)s/c1=C\c1scc[n+]1CCc1cccc(C(F)(F)F)c1 [JG-383] | 2.3 ± 0.2 |  |  |  | 
15 |  |  | CCn1c(=O)/c(=C2\Sc3cc(Cl)ccc3N2C)s/c1=C\c1scc[n+]1Cc1ccccc1OC [JG-263] |  | 0.12 ± 0.01 | 1.5 ± 0.1 |  | 0.4 ± 0.03
16 | 0.073 ± 0.007 | 0.11 ± 0.01 | CCc1ccc2c(c1)S/C(=c1/s/c(=C\c3scc[n+]3Cc3ccccc3OC)n(CC)c1=O)N2C [JG-346] | 0.71 ± 0.03 |  |  |  | 
17 | 0.11 ± 0.01 | 0.15 ± 0.01 | CCn1c(=O)/c(=C2\Sc3ccc(C)cc3N2C)s/c1=C\c1scc[n+]1Cc1ccccc1C(=O)OC [JG-364] | 2.3 ± 0.2 |  |  |  | 
18 | 0.071 ± 0.009 | 0.083 ± 0.007 | CCc1ccc2c(c1)S/C(=c1/s/c(=C\c3scc[n+]3Cc3ccsc3C(=O)OC)n(CC)c1=O)N2C [JG-299] | 0.92 ± 0.04 |  |  |  | 
19 | 0.3 ± 0.02 | 0.87 ± 0.11 | CCn1c(=O)/c(=C2\Sc3cc(F)ccc3N2C)s/c1=C\c1scc[n+]1Cc1occc1C(=O)OC [JG-266] | 2.7 ± 0.2 |  |  |  | 
20 | 0.15 ± 0.01 | 0.14 ± 0.03 | CCn1c(=O)/c(=C2\Sc3cc(C)ccc3N2C)s/c1=C\c1scc[n+]1Cc1ccsc1 [JG-279] | 2.2 ± 0.1 |  |  |  | 
21 | > 20 | > 5 | CCn1c(=O)/c(=C2\Sc3cc(F)ccc3N2C)s/c1=C\c1scc[n+]1Cc1c(C)noc1C [JG-268] | > 10 |  |  |  | 
22 | 0.38 ± 0.04 | 0.32 ± 0.03 | CCn1c(=O)/c(=C2\Sc3cc(F)ccc3N2C)s/c1=C\c1scc[n+]1Cc1c(C)cccc1C [JG-334] | 1.4 ± 0.1 |  |  |  | 
23 | 0.14 ± 0.01 | 0.14 ± 0.01 | CCn1c(=O)/c(=C2\Sc3cc(Br)ccc3N2C)s/c1=C\c1scc[n+]1Cc1ccccc1OC(F)(F)F [JG-291] | 2.3 ± 0.1 |  |  |  | 
24 | 0.088 ± 0.005 | 0.063 ± 0.007 | CCn1c(=O)/c(=C2\Sc3cc(C)ccc3N2C)s/c1=C\c1scc[n+]1Cc1ccccc1Cl [JG-283] | 0.45 ± 0.02 |  |  |  | 
25 | 0.24 ± 0.01 | 0.56 ± 0.06 | CCn1c(=O)/c(=C2\Sc3cc(OC)ccc3N2C)s/c1=C\c1scc[n+]1CCc1cccc(Cl)c1 [JG-394] | 2.3 ± 0.1 |  |  |  | 
